“Also recorded” adds a separate entry of the source.
How the values were obtained:
KELLY cells = assay: Global quantitative proteomics, KELLY; type: cell-based, human; conditions: 1 µM; for proteins downregulated (in words): 5 hours
Protocol: (§1) Cells were lysed by addition of lysis buffer (8 M Urea, 50 mM NaCl, 50 mM 4-(2-hydroxyethyl)-1-piperazineethanesulfonic acid (EPPS) pH 8.5, Protease and Phosphatase inhibitors) and homogenization by bead beating (BioSpec) for three repeats of 30 seconds at 2400. Bradford assay was used to determine the final protein concentration in the clarified cell lysate. 50 μg of protein for each sample was reduced, alkylated and precipitated using methanol/chloroform as previously described ([32]) and the resulting washed precipitated protein was allowed to air dry. Precipitated protein was resuspended in 4 M Urea, 50 mM HEPES pH 7.4, followed by dilution to <1 M urea with the addition of 200 mM EPPS, pH 8. Proteins were digested with LysC (1:50; enzyme:protein) and trypsin (1:50; enzyme:protein) overnight at 37 °C. Sample digests were acidified with formic acid to a pH of 2-3 prior to desalting using C18 solid phase extraction plates (SOLA, Thermo Fisher Scientific). Desalted peptides were dried in a vacuum centrifuge and reconstituted in 0.1% formic acid for LC-MS analysis.
(§2) Data were collected using a TimsTOF Pro2 (Bruker Daltonics, Bremen, Germany) coupled to a nanoElute LC pump (Bruker Daltonics, Bremen, Germany) via a CaptiveSpray nano-electrospray source. Peptides were separated on a reversed-phase C18 column (25 cm x 75 μm ID, […], IonOpticks, Australia) containing an integrated captive spray emitter. Peptides were separated using a 50 min gradient of 2 – 30% buffer B (acetonitrile in 0.1% formic acid) with a flow rate of 250 nL/min and column temperature maintained at 50 °C.
(§3) DDA was performed in Parallel Accumulation-Serial Fragmentation (PASEF) mode to determine effective ion mobility windows for downstream diaPASEF data collection (Meier et al., 2020). The ddaPASEF parameters included: 100% duty cycle using accumulation and ramp times of 50 ms each, 1 TIMS-MS scan and 10 PASEF ramps per acquisition cycle. The TIMS-MS survey scan was acquired between 100–1700 m/z and 1/k0 of 0.7–1.3 V.s/cm^2. Precursors with 1–5 charges were selected and those that reached an intensity threshold of 20,000 arbitrary units were actively excluded for 0.4 min. The quadrupole isolation width was set to 2 m/z for m/z <700 and 3 m/z for m/z >800, with the m/z between 700–800 m/z being interpolated linearly. The TIMS elution voltages were calibrated linearly with three points (Agilent ESI-L Tuning Mix Ions; 622, 922, 1,222 m/z) to determine the reduced ion mobility coefficients (1/K0). To perform diaPASEF, the precursor distribution in the DDA m/z-ion mobility plane was used to design an acquisition scheme for DIA data collection which included two windows in each 50 ms diaPASEF scan. Data was acquired using sixteen of these 25 Da precursor double window scans (creating 32 windows) which covered the diagonal scan line for doubly and triply charged precursors, with singly charged precursors able to be excluded by their position in the m/z-ion mobility plane. These precursor isolation windows were defined between 400–1200 m/z and 1/k0 of 0.7–1.3 V.s/cm^2.
(§4) The diaPASEF raw file processing and controlling peptide and protein level false discovery rates, assembling proteins from peptides, and protein quantification from peptides was performed using either targeted, cell line specific spectral libraries generated by searching offline fractionated DDApasef data against a Swissprot human or mouse database (January 2021) or using library free analysis in DIA-NN 1.8 ([85]). Library free mode performs an in-silico digestion of a given protein sequence database alongside deep learning-based predictions to extract the DIA precursor data into a collection of MS2 spectra. The search results are then used to generate a spectral library which is then employed for the targeted analysis of the DIA data searched against a Swissprot human or mouse database (January 2021). […]

HEK293T cells = assay: Global quantitative proteomics, HEK293T; type: cell-based, human; conditions: 1 µM; for proteins downregulated (in words): 5 hours
Protocol: as §1, §2, §3, §4

MOLT4 cells = assay: Global quantitative proteomics, MOLT4; type: cell-based, human; conditions: 1 µM; for proteins downregulated (in words): 5 hours, threshold ≥ 2-fold at p ≤ 0.0001
Protocol: as §1, §2, §3, §4

Ba/F3 cells = assay: Global quantitative proteomics, Ba/F3; type: cell-based, mouse; conditions: 1 µM; for changes to protein expression (in words): pomalidomide 5 hrs, PT-179 5 and 24 hrs
Protocol: as §1, §2, §3
The diaPASEF raw file processing and controlling peptide and protein level false discovery rates, assembling proteins from peptides, and protein quantification from peptides was performed using either targeted, cell line specific spectral libraries generated by searching offline fractionated DDApasef data against a Swissprot human or mouse database (January 2021) or using library free analysis in DIA-NN 1.8 ([85]). Library free mode performs an in-silico digestion of a given protein sequence database alongside deep learning-based predictions to extract the DIA precursor data into a collection of MS2 spectra. The search results are then used to generate a spectral library which is then employed for the targeted analysis of the DIA data searched against a Swissprot human or mouse database (January 2021).

[1] = system: HEK293T cells stably expressing SD40–eGFP; assay: Global quantitative proteomics, HEK293T expressing SD40–eGFP; type: cell-based, human; conditions: 1 µM
Protocol: To test the versatility of SD40, we generated five stable HEK293T cell lines that exogenously express N- or C-terminal SD40 fusions with Nluc, Fluc, and the kinase activator PRKRA. […] To investigate whether SD40 targets unintended neosubstrates for degradation, we performed global proteomics using HEK293T cells stably expressing SD40–eGFP.
as §1, §2, §3
The diaPASEF raw file processing and controlling peptide and protein level false discovery rates, assembling proteins from peptides, and protein quantification from peptides was performed using either targeted, cell line specific spectral libraries generated by searching offline fractionated DDApasef data against a Swissprot human or mouse database (January 2021) or using library free analysis in DIA-NN 1.8 ([85]). […]

[2] = vs DMSO, 5 hr, HEK293T SD40–eGFP
[3] = vs DMSO, 24 hr, HEK293T SD40–eGFP

Structure (SMILES): O=C1CCC(N2C(=O)c3ccc(N4CCOCC4)cc3C2=O)C(=O)N1 (stereo not shown) [PT-179]
- proteins downregulated (in words) (KELLY cells): no significant degradation of detected proteins
- logFC GLMP (Q8WWB7) (KELLY cells; vs DMSO, 5 hr, KELLY): -1.07E+00
- logFC KIAA1958 (Q8N8K9) (KELLY cells; vs DMSO, 5 hr, KELLY): -1.94E+00
- logFC SYT14 (Q8NB59) (KELLY cells; vs DMSO, 5 hr, KELLY): -1.10E+00
- logFC TIMM8B (Q9Y5J9) (KELLY cells; vs DMSO, 5 hr, KELLY): -1.14E+00
- logFC TUB (P50607) (KELLY cells; vs DMSO, 5 hr, KELLY): -1.12E+00
- proteins downregulated (in words) (HEK293T cells): did not downregulate any detected proteins
- logFC EIF5A (P63241) (HEK293T cells; vs DMSO, 5 hr, HEK293T): 1.52E-01
- logFC GAL (P22466) (HEK293T cells; vs DMSO, 5 hr, HEK293T): 8.26E-01
- logFC ITPKC (Q96DU7) (HEK293T cells; vs DMSO, 5 hr, HEK293T): 6.63E-01
- logFC RBM23 (Q86U06) (HEK293T cells; vs DMSO, 5 hr, HEK293T): 2.25E-01
- logFC ROR1 (Q01973) (HEK293T cells; vs DMSO, 5 hr, HEK293T): 8.84E-01
- proteins downregulated (in words) (MOLT4 cells): did not significantly downregulate any detected proteins
- logFC ACSL1 (P33121) (MOLT4 cells; vs DMSO, 5 hr, MOLT4): -1.03E+00
- logFC APOBEC3C (Q9NRW3) (MOLT4 cells; vs DMSO, 5 hr, MOLT4): -8.07E-01
- logFC ARAP2 (Q8WZ64) (MOLT4 cells; vs DMSO, 5 hr, MOLT4): -9.22E-01
- logFC NXT1 (Q9UKK6) (MOLT4 cells; vs DMSO, 5 hr, MOLT4): -8.48E-01
- logFC SNX11 (Q9Y5W9) (MOLT4 cells; vs DMSO, 5 hr, MOLT4): -9.02E-01
- changes to protein expression (in words) (Ba/F3 cells): do not degrade proteins; also recorded: no significant changes to protein expression
- logFC Bak1 (O08734) (Ba/F3 cells; vs DMSO, 5 hr, Ba/F3): -1.95E-01
- logFC Hspa1l (P16627) (Ba/F3 cells; vs DMSO, 5 hr, Ba/F3): 3.76E-01
- logFC Polr2l (P62876) (Ba/F3 cells; vs DMSO, 5 hr, Ba/F3): 5.32E-01
- logFC Prkd1 (Q62101) (Ba/F3 cells; vs DMSO, 5 hr, Ba/F3): 5.39E-01
- logFC Rpa2 (Q62193) (Ba/F3 cells; vs DMSO, 5 hr, Ba/F3): 1.32E-01
- logFC Pigo (Q9JJI6) (Ba/F3 cells; vs DMSO, 24 hr, Ba/F3): -3.94E-01
- logFC Ppib (P24369) (Ba/F3 cells; vs DMSO, 24 hr, Ba/F3): 9.71E-02
- logFC Prpf38a (Q4FK66) (Ba/F3 cells; vs DMSO, 24 hr, Ba/F3): -1.96E-01
- logFC Ube2v1 (Q9CZY3) (Ba/F3 cells; vs DMSO, 24 hr, Ba/F3): 5.05E-01
- logFC Uchl4 (P58321) (Ba/F3 cells; vs DMSO, 24 hr, Ba/F3): 1.38E-01
- proteins degraded (in words) ([1]; 5 and 24 hours, ≥ 2-fold at p ≤ 0.0001, ~7,800 detected): SD40–eGFP was the only significantly degraded protein
- logFC MFSD10 (Q14728) [1, 2]: -5.07E-01
- logFC RAB18 (Q9NP72) [1, 2]: -1.62E-01
- logFC RALY (Q9UKM9) [1, 2]: -1.52E-01
- logFC SD40 (XSD40X; SD40–eGFP) [1, 2]: -4.05E+00
- logFC SYNCRIP (O60506) [1, 2]: -1.02E-01
- logFC H2AFV (Q71UI9) [1, 3]: 1.94E-01
- logFC RPS15 (P62841) [1, 3]: 1.99E-01
- logFC SD40 (XSD40X; SD40–eGFP) [1, 3]: -3.53E+00
- logFC SUMO1P1 (G2XKQ0) [1, 3]: 1.61E-01
- logFC TAGLN3 (Q9UI15) [1, 3]: 4.42E-01

Structure (SMILES): Nc1cccc2c1C(=O)N(C1CCC(=O)NC1=O)C2=O (stereo not shown) [pomalidomide, reference compound]
- proteins downregulated (in words) (KELLY cells): robust downregulation of the developmental transcription factor SALL4 ([32]) and ZFP91
- logFC DTWD1 (Q8N5C7) (KELLY cells; vs DMSO, 5 hr, KELLY): -1.64E+00
- logFC GID8 (Q9NWU2) (KELLY cells; vs DMSO, 5 hr, KELLY): -1.75E+00
- logFC RAB28 (P51157) (KELLY cells; vs DMSO, 5 hr, KELLY): -1.53E+00
- logFC SALL4 (Q9UJQ4) (KELLY cells; vs DMSO, 5 hr, KELLY): -2.26E+00
- logFC SSNA1 (O43805) (KELLY cells; vs DMSO, 5 hr, KELLY): -1.42E+00
- proteins downregulated (in words) (HEK293T cells): induced degradation of ZFP91
- logFC C3 (P01024) (HEK293T cells; vs DMSO, 5 hr, HEK293T): 7.85E-01
- logFC DTWD1 (Q8N5C7) (HEK293T cells; vs DMSO, 5 hr, HEK293T): -1.29E+00
- logFC EIF5A (P63241) (HEK293T cells; vs DMSO, 5 hr, HEK293T): 1.83E-01
- logFC PKM (P14618) (HEK293T cells; vs DMSO, 5 hr, HEK293T): 1.32E-01
- logFC ZFP91 (Q96JP5) (HEK293T cells; vs DMSO, 5 hr, HEK293T): -2.05E+00
- proteins downregulated (in words) (MOLT4 cells): significant downregulation of the previously identified neosubstrates IKZF1 ([9]) and ZFP91
- logFC DYNLT1 (P63172) (MOLT4 cells; vs DMSO, 5 hr, MOLT4): -9.35E-01
- logFC IKZF1 (Q13422) (MOLT4 cells; vs DMSO, 5 hr, MOLT4): -2.37E+00
- logFC IKZF3 (Q9UKT9) (MOLT4 cells; vs DMSO, 5 hr, MOLT4): -9.56E-01
- logFC RAB28 (P51157) (MOLT4 cells; vs DMSO, 5 hr, MOLT4): -1.66E+00
- logFC ZFP91 (Q96JP5) (MOLT4 cells; vs DMSO, 5 hr, MOLT4): -1.83E+00
- changes to protein expression (in words) (Ba/F3 cells): do not degrade proteins
- logFC Bola1 (Q9D8S9) (Ba/F3 cells; vs DMSO, 5 hr, Ba/F3): -2.16E-01
- logFC Dusp19 (Q8K4T5) (Ba/F3 cells; vs DMSO, 5 hr, Ba/F3): -7.00E-01
- logFC Inpp5k (Q8C5L6) (Ba/F3 cells; vs DMSO, 5 hr, Ba/F3): -9.47E-01
- logFC Llph (Q9D945) (Ba/F3 cells; vs DMSO, 5 hr, Ba/F3): 2.10E-01
- logFC Med8 (Q9D7W5) (Ba/F3 cells; vs DMSO, 5 hr, Ba/F3): -3.40E-01
- proteins degraded (in words) ([1]; 5 hours): SD40-eGFP was significantly degraded alongside multiple known endogenous neosubstrates of pomalidomide
- logFC MCFD2 (Q8NI22) [1, 2]: -1.02E+00
- logFC SD40 (XSD40X; SD40–eGFP) [1, 2]: -4.04E+00
- logFC SRSF3 (P84103) [1, 2]: -1.12E-01
- logFC SURF4 (O15260) [1, 2]: 2.44E-01
- logFC ZFP91 (Q96JP5) [1, 2]: -2.03E+00

Reference: publication PMC11203266, “Continuous evolution of compact protein degradation tags regulated by selective molecular glues” (Science (New York, N.Y.), 2024)
